Assay results published in US20220355283A1, “DRUG, DRUG MANUFACTURING METHOD, AND WATER PURIFICATION METHOD” (priority 2019, published 2022).
Read-outs that look alike come from different tables or passages of the source.

Assay: Lewis acidity measurement method (1): rate constant for the reaction between CoTPP and oxygen in the presence of a Lewis acid
Assay type: physicochemical
[1] = rate constant for reaction between CoTPP and oxygen in presence of the Lewis acid, MeCN, room temperature

| Compound | kcat, M^−2 s^−1 | kcat, M^−2 s^−1 [1] |
| --- | --- | --- |
| CCCC[N+](CCCC)(CCCC)CCCC.F[P-](F)(F)(F)(F)F [tetrabutylammonium hexafluorophosphate] | >0.1 M^−2 s^−1 | – |
| benzalkonium chloride | – | 0.18 M^−2 s^−1 |
| benzethonium chloride | – | 0.24 M^−2 s^−1 |
